Results: EP0567613B1, “COMPOSITIONS FOR THERAPY AND PREVENTION OF CANCER” (The Government of the United States of America, as …, priority 1991, dated 1993)
Read-outs that look alike come from different tables or passages of the source.

Experiments:
[1] = tested on: adipocyte-specific aP2 gene; assay: Northern blot analysis of aP2 expression; assay type: cell-based, mouse; details: treated confluent 10T1/2 cultures
Procedure: (§1) Cytoplasmic RNA (20 µg/lane) was subjected to Northern blot analysis using ^32P-labeled specific DNA probes. Ethidium bromide-stained […] indicates the relative amounts of total RNA in each lane. Figure A. Induction of a P2 expression in 10T1/2 cells. […] Figure B. Kinetics of myc inhibition and HLA-A induction in HL-60. […] Figure C. Dose-dependent and specificity of effect.
In an attempt to explore the possible mechanism of action, Northern blot analysis of HL-60 and 10T1/2 cells was performed according to conventional methods. […] The aP2 cDNA probe was labeled with [^32P]dCTP (NEN) using a commercially available random primed DNA labeling kit. Ethidium bromide-stained 28S rRNA indicates the relative amounts of total RNA in each lane.
Expression of the adipocyte-specific aP2 gene was induced within 24 hrs in treated 10T1/2 confluent cultures reaching maximal mRNA levels by 72 hrs.

[2] = tested on: Astrocytoma U373; assay: Tumor cell growth / proliferation; assay type: cell-based; details: Homo sapiens
[3] = tested on: Osteosarcoma KRIB; assay: Tumor cell growth / proliferation; assay type: cell-based
Excerpt: (§2) • # 7-10 For effective responses, the tumors may require much higher drug concentrations if used alone.
(§3) A differential effect was seen also in ras-transformed fibrosarcoma V7T, when compared to the parental non-tumorigenic N1H3T3 cells.

[4] = tested on: Osteosarcoma HOS; assay: Tumor cell growth / proliferation; assay type: cell-based; details: read-out: % Inhibition by NaPA 0.8 mg/ml
Excerpt: as §2, §3

[5] = tested on: Fibrosarcoma V7T; assay: Tumor cell growth / proliferation; assay type: cell-based
Excerpt: as §2, §3

[6] = tested on: Kaposi's Sarcoma KS; assay: Tumor cell growth / proliferation; assay type: cell-based; details: read-out: % Inhibition by NaPA 0.8 mg/ml
[7] = cited from earlier work
[8] = tested on: HLA-A mRNA; assay: Northern blot analysis in PC3 cells; assay type: cell-based, human; details: NaPA treated PC3 cells
[9] = tested on: 10T1/2 cells; assay: Neoplastic foci formation in culture; details: 800-1600 µg/ml for seven weeks
Excerpt: […] The cells were then subcultured in the absence of the nucleoside analog for an additional seven weeks. […] For the tumorigenicity assay, 4-5 week-old female athymic nude mice were inoculated s.c. with 1 x 10^6 cells and observed for tumor growth at the site of injection.

[10] = tested on: Astrocytoma U87; assay: Tumor cell growth / proliferation; assay type: cell-based
[11] = tested on: Erythroleukemia K562 cells; assay: Induction of hemoglobin synthesis (benzidine staining, protein quantitation); details: for Benzidine Positive Cells: seven days
[12] = tested on: Fibrosarcoma RS485; assay: Tumor cell growth / proliferation; assay type: cell-based; details: read-out: % Inhibition by NaPA 0.8 mg/ml
Excerpt: as §2

[13] = tested on: Squamous Cancer of Head & Neck A431; assay: Tumor cell growth / proliferation; assay type: cell-based; details: Homo sapiens
Excerpt: as §2

[14] = tested on: Breast Cancer MCF-7; assay: Tumor cell growth / proliferation; assay type: cell-based; details: Homo sapiens
Excerpt: as §2

[15] = tested on: Melanoma SK MEL 28; assay: Tumor cell growth / proliferation; assay type: cell-based; details: Homo sapiens
[16] = tested on: the malignant or the normal cells; assay: Cytotoxicity in tissue culture; assay type: cell-based; details: growth-inhibitory concentrations
Excerpt: as §3
(§4) The concentration range found to selectively suppress malignant growth can be readily obtained in the clinical setting without causing significant side effects.

[17] = Cytotoxicity in tissue culture; assay type: cell-based; details: tissue culture; read-out: concentration at which cytotoxicity was observed
Excerpt: as §3, §4

[18] = tested on: HL-60; assay: Cell proliferation (cell number); assay type: cell-based, human
Procedure: The adherent cells were detached with trypsin/EDTA and the cell number determined using a hemocytometer. Data points indicate the mean ± S.D. of duplicates from two independent experiments. The cell lines were obtained from the American Type Culture Collection and maintained in RPMI 1640 (HL-60) or Dulbecco's Modified Eagle's Medium (10T1/2) supplemented with 10% heat inactivated fetal calf serum (Gibco Laboratories), 2 mM L-Glutamine, and antibiotics.

[19] = tested on: myc; assay: Northern blot analysis of myc mRNA in HL-60; assay type: cell-based, human; details: HL-60, NaPA 0.8 mg/ml
Procedure: as §1
(§5) In HL-60, cell transformation has been linked to myc amplification and overexpression, and differentiation would typically require down regulation of myc expression. [Collins, S.J. The HL-60 promyelocytic leukemia cell line: Proliferation, differentiation, and cellular oncogene expression. Blood. 70:1233-1244 (1987)]. […] The 32P-labeled probes used were myc 3rd exon (Oncor) and HLA-A3 Hind III/EcoRI fragment. […] This occurred within 4 hours of treatment, preceding the phenotypic changes detectable by 48 hrs, approximately two cell cycles, after treatment. Similar kinetics of myc inhibition have been reported for other differentiation agents such as dimethyl sulfoxide, sodium butyrate, bromodeoxyuridine, retinoids, and 1,25-dihydroxyvitamin D3. […] It is believed that this may enhance the immunogenicity of tumors in vivo.

[20] = tested on: HLA-A; assay: Northern blot analysis of HLA-A mRNA in HL-60; assay type: cell-based, human; details: HL-60, NaPA 0.8 and 1.6 mg/ml
Procedure: as §1, §5

[21] = tested on: Prostatic Ca LaNCoP; assay: Tumor cell growth / proliferation; assay type: cell-based; details: read-out: % Inhibition by NaPA 0.8 mg/ml
[22] = tested on: lung adenocarcinoma H661; assay: Tumor cell growth / proliferation; assay type: cell-based; details: Homo sapiens, NCI-H661; read-out: concentration causing about 50% inhibition of growth
[23] = tested on: lung adenocarcinoma H596; assay: Tumor cell growth / proliferation; assay type: cell-based; details: Homo sapiens, NCI-H596; read-out: concentration causing about 50% inhibition of growth
[24] = read-out: % Inhibition by NaPA 0.8 mg/ml, 0.8 mg/ml
[25] = read-out: concentration causing about 50% inhibition of growth

O=C([O-])Cc1ccccc1.[Na+] [NaPA, sodium phenylacetate]
time to induction of aP2 gene expression [1]: ≤ 24 h
time to maximal aP2 mRNA levels [1]: ≤ 72 h
IC50 ([2]; U373 MG, read-out: concentration causing about 50% inhibition of growth): 400 to 800 µg/mL
inhibition at 800 µg/mL ([2]; read-out: % Inhibition by NaPA 0.8 mg/ml, U373, 0.8 mg/ml): ≥ 50%
inhibition at 800 µg/mL [3, 24]: ≤ 30%
IC50 [3, 25]: 1000 to 1500 µg/mL
inhibition at 800 µg/mL [4]: < 20%
inhibition at 800 µg/mL [5, 24]: ≤ 30%
IC50 [5, 25]: 1000 to 1500 µg/mL
inhibition at 800 µg/mL [6]: ≤ 40%
plasma levels ([7]; children with urea cycle disorders, infusion 300-500 mg/kg/day): approximately 800 µg/ml
plasma levels ([7]; humans, intravenous infusion 250-500 mg/kg/day): 600 to 800 µg/mL
level of HLA-A mRNA [8]: an increase in the level of HLA-A mRNA
neoplastic foci in vitro and tumors in recipient mice [9]: forming neither neoplastic foci in vitro nor tumors in recipient mice
IC50 ([10]; Homo sapiens, U-87 MG, read-out: concentration causing about 50% inhibition of growth): 400 to 800 µg/mL
inhibition at 800 µg/mL [10, 24]: ≥ 50%
hemoglobin accumulation, increase over control cells ([11]; 0.8 and 1.6 mg/ml): 4-9 fold
Benzidine Positive Cells ([11]; NaPA 0.8 mg/ml): 6.0%
Benzidine Positive Cells ([11]; NaPA 1.6 mg/ml): 17.1%
inhibition at 800 µg/mL [12]: ≤ 30%
inhibition at 800 µg/mL ([13]; A-431, read-out: % Inhibition by NaPA 0.8 mg/ml, 0.8 mg/ml): < 30%
IC50 ([13]; A-431, read-out: concentration causing about 50% inhibition of growth): 1000 to 1500 µg/mL
inhibition at 800 µg/mL ([14]; MCF7, read-out: % Inhibition by NaPA 0.8 mg/ml, MCF-7, 0.8 mg/ml): ≤ 30%
IC50 ([14]; MCF7, breast tumor MCS-7, read-out: concentration causing about 50% inhibition of growth): 1000 to 1500 µg/mL
inhibition at 800 µg/mL [15, 24]: > 50%
IC50 [15, 25]: 400 to 800 µg/mL
toxicity of the treatment to cells [16]: not toxic to either the malignant or the normal cells
MCC [17]: > 3000 µg/mL
inhibition at 800 µg/mL ([18]; Homo sapiens, read-out: % Inhibition by NaPA 0.8 mg/ml, HL-60, 0.8 mg/ml): ≤ 40%
cell proliferation ([18]; treated for four days): dose dependent inhibition of cell proliferation
time to decline in the amounts of myc mRNA [19]: ≤ 4 h
HLA-A mRNA [20]: time- and dose-dependent accumulation of HLA-A mRNA
inhibition at 800 µg/mL [21]: > 50%
IC50 [22]: 400 to 800 µg/mL
IC50 [23]: 400 to 800 µg/mL
